{"source": "patent US20210315881A1", "about": "“COMBINATION OF HISTONE DEACETYLASE INHIBITOR AND PROTEIN KINASE INHIBITOR AND PHARMACEUTICAL USE THEREOF” (SHENZHEN CHIPSCREEN BIOSCIENCES CO., LTD., priority 2018, published 2021)", "key": {"SMMC-7721 cells": {"system": "SMMC-7721 cells", "assay": "Colony forming assay (crystal violet)", "type": "cell-based", "details": "SMMC-7721, Chiauranib monotreatment 5 μM, 2-3 weeks", "protocol": "(§1) The SMMC-7721, Bel-7404 cell lines at the log phase stage were digested by trypsin, collected and counted, then seeded in a 6-well cell culture plate at the density of 500 cells/1.8 mL in each well, and cultured at 37° C. under 5% CO2. After cultured overnight, the cells were administered according to the grouping and the final concentration dosages shown in FIG. 2 (the final volume of each well after administration was 2 mL). The culture media and drugs were replaced every 3 days to keep the culture system and the dosage for each well stable.\nAfter cultured for 2-3 weeks, when there were visible cell colonies in the culture plate, the culture was terminated. The supernatants were discarded, and the plate was washed carefully with PBS twice. 1 mL of 75% ethanol solution was added to each well to fix the cells, and the fixative solution was discarded after 15 min. Then the cells were stained for 15 min by adding 1 mL of crystal violet solution to each well, and the staining solution was washed slowly with running water and air dried. The stained positive cell colonies in each well of the culture plate were photographed to compare their density."}, "Bel-7404 cells [1]": {"system": "Bel-7404 cells", "assay": "Colony forming assay (crystal violet)", "type": "cell-based, human", "details": "Bel-7404, Chiauranib monotreatment 3 μM, 2-3 weeks", "protocol": "(§2) Human hepatoma cell line Bel-7402 and Bel-7404 were purchased from the Cell Resource Center of Shanghai Institutes for Biological Sciences, CAS, and routinely cultured at 37° C. under 5% CO2, in a culture medium of RPMI-1640 (Gibco) containing 10% fetal bovine serum (FBS; Gibco) and 1% Penicillin-Streptomycin (HyClone). Trypsin was purchased from Gibco. Crystal violet, RNase A (10 mg/mL) solution, propidium iodide (PI), Triton X-100 were purchased from Sangon Biotech (Shanghai) Co., Ltd. MTS cell viability assay kits, Caspase-Glo 3/7 assay kits were purchased from Promega. Nude mice were purchased from Guangdong Medical Laboratory Animal Center.\nas §1\nAfter cultured for 2-3 weeks, when there were visible cell colonies in the culture plate, the culture was terminated. The supernatants were discarded, and the plate was washed carefully with PBS twice. […]"}, "Bel-7404 cells [2]": {"system": "Bel-7404 cells", "assay": "MTS cell viability assay", "type": "cell-based, human", "details": "Bel-7404, monotreatment, 120 hours, dose-dependent", "protocol": "as §2\n(§3) The Bel-7402, Bel-7404 cell lines were digested by trypsin, collected and counted, and then seeded in a 96-well cell culture plate at the density of 3,000 cells/180 μL in each well, and cultured at 37° C. under 5% CO2. […] After incubation at 37° C. for about 1 hour, the absorbance of each well was read at 490 nm wavelength with a microplate reader. The OD490-T value of each administered well and the OD490-T0 value of the negative control well after background deduction were obtained by subtracting OD490-BLK from the absorbance reading value of each well.\n(§4) The relative survival rate of the cells in each administered well was calculated according to the following formula: […]"}, "Bel-7402 cells": {"system": "Bel-7402 cells", "assay": "MTS cell viability assay", "type": "cell-based, human", "details": "Bel-7402, monotreatment, 120 hours, dose-dependent", "protocol": "as §2, §3, §4"}, "Bel-7404 cell xenograft": {"system": "Bel-7404 cell xenograft", "assay": "Tumor cell xenograft model in nude mice", "type": "in vivo", "details": "2.5 mg/kg Chiauranib, intragastrically once a day, 33 days, vs solvent control", "protocol": "The cells of Bel-7404 were cultured to expend to a large amount, and maintained at a log phase state. After the number of the cells reached the required amount, they were digested with trypsin, collected, washed twice with a large amount of PBS to remove the trypsin and serum, and centrifuged at 800 rpm for 10 min at room temperature and the cell supernatants were discarded. The cells were resuspended in the FBS-free RPIM-1640 culture medium, and adjusted the cell density to 10^7/300 μL.\nUnder aseptic conditions, each nude mouse was injected subcutaneously on the back with 300 μL/injection, one injection per nude mouse. A 1 mL disposable medical syringe for injection was used, and the injection site and direction were roughly same for each nude mouse.\nOne day after cell implanting, the nude mice were randomly divided into four groups (namely, solvent control group, Chiauranib 2.5 mg/kg group, Chidamide 20 mg/kg group and the combined administration group), housed in separate cages after marked, administered in groups and tumor formation of each mouse was observed every day. […] Every 2 days, the longest diameter of the tumor (length) and the widest diameter (width) perpendicular to the longest diameter were measured with a vernier caliper. The tumor volume was calculated by the formula TS=length×(width)^2/2 and recorded. […]"}, "Bel-7404 cells [3]": {"system": "Bel-7404 cells", "assay": "Cell cycle analysis by flow cytometry with PI staining", "type": "cell-based, human", "details": "Bel-7404, 3 μM Chiauranib, 48 hours", "protocol": "as §2\nThe cells of Bel-7404 at the log phase stage were digested by trypsin, collected and counted. The cells were seeded in a 6-well plate at the density of 10^6 cells per well in a total of 18 wells. […] The fixed samples were allowed to stand at 4° C. for more than 12 hours, and analyzed by the flow cytometry assay within 1 week.\nPBS, 10 mg/mL PI stock solution, 10 mg/mL RNase A solution and Triton X-100 were mixed at a ratio of 1000:5:2:1 to form a working dye solution. […] The filtrate was analyzed for cell cycles by the flow cytometry assay (each sample counted 20,000 cells)."}, "Bel-7404 cells [4]": {"system": "Bel-7404 cells", "assay": "Cell apoptosis by Caspase 3/7 assay", "type": "cell-based, human", "details": "Bel-7404, 3 μM Chiauranib monotreatment, 48 hours", "protocol": "as §2\nThe cells of Bel-7404 at the log phase stage were digested by trypsin, collected and counted. The cells were seeded in a 96-well plate at density of 2000 cells per well in a total of 18 wells. […]\nThe 96-well plates containing the treated cells were taken out of the incubator and equilibrated to room temperature. […] The […] value of each sample was measured by a luminometer. The […] value can directly reflect the proportion of apoptotic cells in each well, and can be used to calculate and compare the cell viability of the different groups."}}, "data": [{"smiles": "COc1ccc2c(Oc3ccc4c(C(=O)Nc5ccccc5N)cccc4c3)ccnc2c1", "note": "[Chiauranib]", "values": [{"measurement": "formation of cell colonies", "setting": "SMMC-7721 cells", "value": "relatively significant effect on the formation of cell colonies"}, {"measurement": "formation of cell colonies", "setting": "Bel-7404 cells [1]", "value": "affected somewhat on the formation of cell colonies"}, {"measurement": "inhibitory effect on tumor cell proliferation (survival rate)", "setting": "Bel-7404 cells [2]", "value": "a certain inhibitory effect on tumor cell proliferation"}, {"measurement": "inhibitory effect on tumor cell proliferation (survival rate)", "setting": "Bel-7402 cells", "value": "a certain inhibitory effect on tumor cell proliferation"}, {"measurement": "tumor volume of tumor-bearing nude mice", "setting": "Bel-7404 cell xenograft", "value": "inhibited to a certain extent"}, {"measurement": "cells in G2/M phase and polyploid cells", "setting": "Bel-7404 cells [3]", "value": "slightly increased"}, {"measurement": "proportion of apoptotic cells", "setting": "Bel-7404 cells [4]", "value": "increased the proportion of apoptotic cells to a certain extent"}]}]}
